# Measurements as given in PubChem BioAssay AID2060491 (Molecular Pharmacology Branch, DTP, NCI, 2025).
# Tested on: 857933-349-R-J2-PDC complex spheroids, viability
# Assay: Anticancer human tumor 857933-349-R-J2-PDC patient-derived colon adenocarcinoma cell line growth inhibition [GQUAD]
# Details: for IC50: curve of first compound; for viability, T/C: stronger effect = lower value
# Procedure, shortened: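 Viability of tumor cells grown as complex spheroids with endothelial and stromal cells, exposed to drug combinations. Top concentration at or near clinical Cmax (else 10 microM), diluted in half-log increments.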
# [1] = second compound 0.0316 µM, first compound 0.0316 µM
# [2] = second compound 0.0316 µM, first compound 0.1 µM
# [3] = second compound 0.0316 µM, first compound 0.316 µM
# [4] = second compound 0.0316 µM, first compound 1 µM
# [5] = second compound 0.0316 µM, first compound 3.16 µM
# [6] = second compound 0.0316 µM, first compound 10 µM
# [7] = second compound 0.1 µM, first compound 0.0316 µM
# [8] = second compound 0.1 µM, first compound 0.1 µM
# [9] = second compound 0.1 µM, first compound 0.316 µM
# [10] = second compound 0.1 µM, first compound 1 µM
# [11] = second compound 0.1 µM, first compound 3.16 µM
# [12] = second compound 0.1 µM, first compound 10 µM
# [13] = second compound 0.316 µM, first compound 0.0316 µM
# [14] = second compound 0.316 µM, first compound 0.1 µM
# [15] = second compound 0.316 µM, first compound 0.316 µM
# [16] = second compound 0.316 µM, first compound 1 µM
# [17] = second compound 0.316 µM, first compound 3.16 µM
# [18] = second compound 0.316 µM, first compound 10 µM
# [19] = second compound 1 µM, first compound 0.0316 µM
# [20] = second compound 1 µM, first compound 0.1 µM
# [21] = second compound 1 µM, first compound 0.316 µM
# [22] = second compound 1 µM, first compound 1 µM
# [23] = second compound 1 µM, first compound 3.16 µM
# [24] = second compound 1 µM, first compound 10 µM
# [25] = second compound 3.16 µM, first compound 0.0316 µM
# [26] = second compound 3.16 µM, first compound 0.1 µM
# [27] = second compound 3.16 µM, first compound 0.316 µM
# [28] = second compound 3.16 µM, first compound 1 µM
# [29] = second compound 3.16 µM, first compound 3.16 µM
# [30] = second compound 3.16 µM, first compound 10 µM
# [31] = second compound 10 µM, first compound 0.0316 µM
# [32] = second compound 10 µM, first compound 0.1 µM
# [33] = second compound 10 µM, first compound 0.316 µM
# [34] = second compound 10 µM, first compound 1 µM
# [35] = second compound 10 µM, first compound 3.16 µM
# [36] = second compound 10 µM, first compound 10 µM
# 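Further: spheroids exposed to compounds for one week before readout.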
# 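Wherever viability, T/C is given: percent viability relative to vehicle DMSO wells taken as 100%.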
smiles,measurement,setting,value
COc1ccc([C@@H](O)c2cc(-c3ncnc4cc(N5CCOCC5)ccc34)c(F)cc2Cl)nn1 + Cc1[nH]c2ccc(F)cc2c1-c1nc2c3cccnc3c3ncccc3c2[nH]1,IC50,second compound 0.0316 µM,> 10 µM
same,IC50,second compound 0.1 µM,8.66 µM
same,IC50,second compound 0.316 µM,> 10 µM
same,IC50,second compound 1 µM,> 10 µM
same,IC50,second compound 3.16 µM,> 10 µM
same,IC50,second compound 10 µM,> 10 µM
same,"viability, T/C",[1],124%
same,"viability, T/C",[2],98.5%
same,"viability, T/C",[3],99.8%
same,"viability, T/C",[4],82.2%
same,"viability, T/C",[5],69.9%
same,"viability, T/C",[6],51.6%
same,"viability, T/C",[7],107%
same,"viability, T/C",[8],108%
same,"viability, T/C",[9],93.5%
same,"viability, T/C",[10],87.8%
same,"viability, T/C",[11],64.2%
same,"viability, T/C",[12],48.1%
same,"viability, T/C",[13],108%
same,"viability, T/C",[14],91.1%
same,"viability, T/C",[15],99.1%
same,"viability, T/C",[16],90.8%
same,"viability, T/C",[17],71.6%
same,"viability, T/C",[18],58.1%
same,"viability, T/C",[19],102%
same,"viability, T/C",[20],98.8%
same,"viability, T/C",[21],96.3%
same,"viability, T/C",[22],99.4%
same,"viability, T/C",[23],71.8%
same,"viability, T/C",[24],52.7%
same,"viability, T/C",[25],113%
same,"viability, T/C",[26],96.5%
same,"viability, T/C",[27],95.1%
same,"viability, T/C",[28],94%
same,"viability, T/C",[29],66.1%
same,"viability, T/C",[30],52.2%
same,"viability, T/C",[31],105%
same,"viability, T/C",[32],94.1%
same,"viability, T/C",[33],91.6%
same,"viability, T/C",[34],79.9%
same,"viability, T/C",[35],68.6%
same,"viability, T/C",[36],51.9%
COc1ncnc(C2CC2)c1-c1ncc2cnn(Cc3ccc(-c4nc(C(F)(F)F)cn4C(C)C)cc3)c2n1 + Cc1cnc(CNC(=O)c2c(=O)c3ccc(N4CCCN(C)CC4)nc3n3c2sc2ccccc23)cn1,IC50,second compound 0.0316 µM,> 10 µM
same,IC50,second compound 0.1 µM,> 10 µM
same,IC50,second compound 0.316 µM,< 0.0316 µM
same,IC50,second compound 1 µM,< 0.0316 µM
same,IC50,second compound 3.16 µM,< 0.0316 µM
same,IC50,second compound 10 µM,< 0.0316 µM
same,"viability, T/C",[1],108%
same,"viability, T/C",[2],80.5%
same,"viability, T/C",[3],85.4%
same,"viability, T/C",[4],81.6%
same,"viability, T/C",[5],85.1%
same,"viability, T/C",[6],86%
same,"viability, T/C",[7],55.2%
same,"viability, T/C",[8],58.1%
same,"viability, T/C",[9],50%
same,"viability, T/C",[10],64.1%
same,"viability, T/C",[11],67.2%
same,"viability, T/C",[12],70%
same,"viability, T/C",[13],19.1%
same,"viability, T/C",[14],19.9%
same,"viability, T/C",[15],17.7%
same,"viability, T/C",[16],22.1%
same,"viability, T/C",[17],23.2%
same,"viability, T/C",[18],18.1%
same,"viability, T/C",[19],3.57%
same,"viability, T/C",[20],3.77%
same,"viability, T/C",[21],3.91%
same,"viability, T/C",[22],3.85%
same,"viability, T/C",[23],4.62%
same,"viability, T/C",[24],7.3%
same,"viability, T/C",[25],2.42%
same,"viability, T/C",[26],2.35%
same,"viability, T/C",[27],2.33%
same,"viability, T/C",[28],2.58%
same,"viability, T/C",[29],3.1%
same,"viability, T/C",[30],2.88%
same,"viability, T/C",[31],0.21%
same,"viability, T/C",[32],0.29%
same,"viability, T/C",[33],0.4%
same,"viability, T/C",[34],0.43%
same,"viability, T/C",[35],0.91%
same,"viability, T/C",[36],0.42%
